{"source": "patent US8623377B2", "about": "“Joint-homing peptides and uses thereof” (University of Maryland, Baltimore, priority 2011, dated 2014)", "key": {"[1]": {"tested_on": "CD31-expressing endothelial cells from an arthritic rat joint", "assay": "Binding of fluorescein-labeled peptide to CD31-expressing endothelial cells from arthritic rat joint", "format": "cell-based", "procedure": "FIG. 2A: Binding of specific phage encoding the peptide NQR or ADK to the vascular endothelium was visualized by immunohistochemical examination of the hind paw section of the rthritic rats using the anti-T7 phage antibody. The binding of phage was tested in the presence or absence of the corresponding synthetic peptide. BV, blood vessel, L, lumen. FIG. 2B: Arthritic rats were injected with specific phage (ADK phage, left; NQR phage, center; or RGD phage, right) in the presence or absence of the corresponding synthetic peptide, and the titer of the phage recovered from the synovial tissue was assessed. *P<0.01. FIG. 2C: CD31-expressing endothelial cells were isolated from arthritic rat joints (upper) or the liver (lower) and stained with DAPI (blue), FITC-labeled peptide NQR (green), or Alexa Fluor 594-labeled anti-rat CD31 antibody (red). Also shown is the staining overlay (merge) of green and red (yellow). The inset is an enlarged view of a single cell; original magnification, 20×. FIG. 2D: LPS-stimulated HUVECs were stained with DAPI and FITC-labeled peptide NQR and observed under a fluorescence microscope, original magnification, 100×. […]"}, "ERK1/2": {"tested_on": "ERK1/2", "assay": "VEGF-induced signaling in HUVECs, Western blot p-ERK1/2", "format": "cell-based, human", "details": "peptide 10, 50, 100 μg/mL 1 h, then VEGF 10 ng/mL 20 min", "source_text": "FIG. 6A: HUVECs were stimulated with VEGF and treated with the indicated concentrations of peptides. Phosphorylated ERK1/2 and Akt, as well as total ERK1/2 and Akt, were detected by Western blot analysis. FIG. 6B: Thereafter, p-ERK1/2 and p-Akt were quantified by densitometry, normalized to total ERK1/2 (left) and Akt (right), respectively, and compared with cells in serum-free medium. The results of a representative experiment from a set of three independent experiments are shown. *P<0.05, compared with the positive control.\nHUVECs were grown in F-12K medium in the presence of endothelial cell growth supplement (ECGS) (BD Biosciences) and 15% FBS. Confluent cells were starved in basal medium (without ECGS and FBS) for 6 h. Then the cells were pretreated for 1 h with different concentrations (10, 50, and 100 μg/mL) of a peptide (NQR, ADK, or RGD) in fresh basal medium, followed by treatment with VEGF (10 ng/mL) for another 20 min. The conditional medium was discarded, and the cells were lysed using a lysis buffer containing protease inhibitors and phosphatase inhibitors. The cell lysate was then centrifuged, and the resulting supernatant was used for analysis of signaling molecules using specific antibodies to human pERK1/2, ERK1/2, pAkt, Akt, and GAPDH (Cell Signaling Technology) by Western blot analysis. The intensity of the bands in the gel was quantified by densitometry. The levels of p-ERK1/2 and p-Akt were normalized to total ERK1/2 and Akt, respectively, and compared with cells in serum-free medium."}, "LPS-stimulated HUVECs": {"tested_on": "LPS-stimulated HUVECs", "assay": "Internalization of FITC-labeled peptide in LPS-stimulated HUVECs", "format": "cell-based, human", "procedure": "FIG. 2A: Binding of specific phage encoding the peptide NQR or ADK to the vascular endothelium was visualized by immunohistochemical examination of the hind paw section of the rthritic rats using the anti-T7 phage antibody. The binding of phage was tested in the presence or absence of the corresponding synthetic peptide. BV, blood vessel, L, lumen. FIG. 2B: Arthritic rats were injected with specific phage (ADK phage, left; NQR phage, center; or RGD phage, right) in the presence or absence of the corresponding synthetic peptide, and the titer of the phage recovered from the synovial tissue was assessed. *P<0.01. FIG. 2C: CD31-expressing endothelial cells were isolated from arthritic rat joints (upper) or the liver (lower) and stained with DAPI (blue), FITC-labeled peptide NQR (green), or Alexa Fluor 594-labeled anti-rat CD31 antibody (red). Also shown is the staining overlay (merge) of green and red (yellow). The inset is an enlarged view of a single cell; original magnification, 20×. FIG. 2D: LPS-stimulated HUVECs were stained with DAPI and FITC-labeled peptide NQR and observed under a fluorescence microscope, original magnification, 100×."}, "[2]": {"tested_on": "HUVECs attachment to vitronectin", "assay": "Attachment of HUVECs to vitronectin", "format": "cell-based, human", "details": "peptide 30-800 μg/mL, 1 h on vitronectin-coated wells", "procedure": "HUVECs were first suspended in F-12K medium containing the indicated concentrations of NQR, AK or RGD peptide and then incubated for 1 h in microtiter wells coated with vitronectin. The number of cells that attached to vitronectin was quantified. The results of three independent experiments are shown. *P<0.05, compared with the baseline control.\nThe attachment of HUVECs to vitrnectin was quantified as described (37, 38). Microtiter wells were coated overnight at 4° C. with 2 μg/mL of vitronectin (BD Biosciences). These wells were then blocked for 1 h at 37° C. with 10 mg/mL of BSA (Sigma-Aldrich). In parallel, HUVECs (1.5×10^5 cells/mL) suspended in F-12K medium containing 10% FBS were incubated for 15 min at 37° C. with different concentrations (30-800 μg/mL) of NQR, ADK, or RGD peptide. Thereafter, this cell suspension 100 μL/well) was added to the vitronectin-coated wells, followed by incubation at 37° C. for 1 h. After washing, the number of attached cells was determined using crystal violet (Fisher Scientific)."}}, "data": [{"sequence": "CLDNQRPKC (Synthetic peptide homing to joint in an animal) [NQR peptide, joint-homing phage-derived synthetic peptide]", "values": [{"measurement": "binding of fluorescein-labeled peptide to joint-derived endothelial cells", "setting": "[1]; CD31-expressing endothelial cells, arthritic rat joint", "value": "bound specifically to the joint-derived"}, {"measurement": "colocalization of peptide with CD31", "setting": "[1]; joint-derived endothelial cells", "value": "colocalized with CD31"}, {"measurement": "effect on VEGF-induced pERK", "setting": "ERK1/2", "value": "induced a decrease in pERK"}, {"measurement": "cellular uptake of peptide", "setting": "LPS-stimulated HUVECs; FITC-labeled peptide, LPS-stimulated HUVECs", "value": "transported across the cell membrane into the cytoplasm and the nucleus"}, {"measurement": "time by which most peptide accumulated in the perinuclear area", "setting": "LPS-stimulated HUVECs; after addition to the cells", "value": "≤ 45", "unit": "min"}, {"measurement": "effect on attachment of HUVECs to vitronectin", "setting": "[2]", "value": "Neither peptide had any effect"}]}]}
